Assay results reported in patent publication US7173133B2, “Diaza-spiropiperidine derivatives” (Hoffmann-La Roche Inc., priority 2004, dated 2007).

Target: T1, mGlyT-1b (Mus musculus, UniProt P28571)
T1 sequence (P28571 1-651 isoform P28571-2): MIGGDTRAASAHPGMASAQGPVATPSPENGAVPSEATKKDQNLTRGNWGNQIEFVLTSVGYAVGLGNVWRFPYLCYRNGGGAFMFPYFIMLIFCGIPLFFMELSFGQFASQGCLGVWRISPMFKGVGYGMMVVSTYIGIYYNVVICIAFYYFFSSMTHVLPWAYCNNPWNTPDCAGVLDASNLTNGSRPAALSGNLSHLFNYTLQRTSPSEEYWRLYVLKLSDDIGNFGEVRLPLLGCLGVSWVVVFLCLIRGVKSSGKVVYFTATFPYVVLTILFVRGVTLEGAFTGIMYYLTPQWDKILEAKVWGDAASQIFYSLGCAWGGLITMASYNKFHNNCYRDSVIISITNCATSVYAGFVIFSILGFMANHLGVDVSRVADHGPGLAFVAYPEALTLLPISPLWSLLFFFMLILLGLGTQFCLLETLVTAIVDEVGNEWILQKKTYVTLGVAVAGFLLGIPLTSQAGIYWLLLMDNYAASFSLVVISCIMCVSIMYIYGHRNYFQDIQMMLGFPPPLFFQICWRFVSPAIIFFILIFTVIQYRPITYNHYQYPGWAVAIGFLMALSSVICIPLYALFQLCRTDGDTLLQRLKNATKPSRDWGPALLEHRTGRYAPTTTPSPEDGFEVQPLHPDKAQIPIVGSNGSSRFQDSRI
Assay: Glycine uptake inhibition assay (mGlyT-1b)
Format: cell-based
Details: [3H]-glycine uptake in Flp-in-CHO cells transfected with mGlyT-1b cDNA; values of some enantiomers
Protocol: DMEM complete medium: Nutrient mixture F-12 (Gibco Life-technologies), fetal bovine serum (FBS) 5%, (Gibco life technologies), Penicillin/Streptomycin1% (Gibco life technologies), Hygromycin 0.6 mg/ml (Gibco life technologies), Glutamine 1 mM Gibco life technologies).
Uptake buffer (UB): 150 mM NaCl, 10 mM Hepes-Tris, pH 7.4, 1 mM CaCl2, 2.5 mM KCl, 2.5 mM MgSO4, 10 mM (+) D-glucose.
Flp-in™-CHO (Invitrogen Cat n° R758–07) cells stably transfected with mGlyT1b cDNA.
Glycine Uptake Inhibition Assay (mGlyT-1b)
On day 1 mammalian cells, (Flp-in™-CHO), transfected with mGlyT-1b cDNA, were plated at the density of 40,000 cells/well in complete F-12 medium, without hygromycin in. 96-well culture plates. On day 2, the medium was aspirated and the cells were washed twice with uptake buffer (UB). The cells were then incubated for 20 min at 22° C. with either (i) no potential competitor, (ii) 10 mM non-radioactive glycine, (iii) a concentration of a potential inhibitor. […] A solution was then immediately added containing [^3H]-glycine 60 nM (11–16 Ci/mmol) and 25 μM non-radioactive glycine. The plates were incubated with gentle shaking and the reaction was stopped by aspiration of the mixture and washing (three times) with ice-cold UB. The cells were lysed with scintillation liquid, shaken 3 hours and the radioactivity in the cells was counted using a scintillation counter.

| SMILES | IC50 [nM] |
| --- | --- |
| Cc1ccc([C@H]2CCCC[C@H]2N2CCC3(CC2)C(=O)NCC3c2ccccc2)cc1 (mixture of isomers) [Example 2, Cis-rac-4-Phenyl-8-(2-p-tolyl-cyclohexyl)-2,8-diaza-spiro[4.5]decan-1-one] | 105 |
| O=C1NCC(c2ccccc2)C12CCN(C1CCCCC1(O)c1ccc(F)cc1)CC2 (centres unmarked) [Example 11, 8-[2-(4-Fluoro-phenyl)-2-hydroxy-cyclohexyl]-4-phenyl-2,8-diaza-spiro[4.5]decan-1-one] | 70 |
| O=C1NCC(c2ccc(F)cc2)C12CCN(C1CCCCC1(O)c1cccc(Cl)c1)CC2 (centres unmarked) [Example 17, 8-[2-(3-Chloro-phenyl)-2-hydroxy-cyclohexyl]-4-(4-fluoro-phenyl)-2,8-diaza-spiro[4.5]decan-1-one] | 73 |
| O=C1NCC(c2ccc(F)cc2)C12CCN(C1COCCC1(O)c1ccccc1)CC2 (stereo not drawn) [Example 29, 4-(4-Fluoro-phenyl)-8-trans-(4-hydroxy-4-phenyl-tetrahydro-pyran-3-yl)-2,8-diaza-spiro[4.5]decan-1-one] | 91 |
| O=C1NCC(c2ccc(F)cc2)C12CCN(C1CCCCC1(O)c1ccccc1F)CC2 (centres unmarked) [Example 16, 4-(4-Fluoro-phenyl)-8-[2-(2-fluoro-phenyl)-2-hydroxy-cyclohexyl]-2,8-diaza-spiro[4.5]decan-1-one] | 69 |
| O=C1NCC(c2ccccc2)C12CCN([C@@H]1CCCC[C@@H]1c1ccc(F)cc1)CC2 (mixture of isomers) [Example 6, cis-rac-8-[2-(4-Fluoro-phenyl)-cyclohexyl]-4-phenyl-2,8-diaza-spiro[4.5]decan-1-one] | 48 |
| O=C1NCC(c2ccccc2)C12CCN([C@@H]1CCCC[C@@H]1c1ccccc1)CC2 (mixture of isomers) [Example 1, cis-rac-4-Phenyl-8-(2-phenyl-cyclohexyl)-2,8-diaza-spiro[4.5]decan-1-one] | 61 |
| O=C1NCC(c2ccc(F)cc2)C12CCN([C@@H]1CCCC[C@@H]1c1ccc(C(F)(F)F)cc1)CC2 (mixture of isomers) [Example 10, cis-rac-4-(4-Fluoro-phenyl)-8-[2-(4-trifluoromethyl-phenyl)-cyclohexyl]-2,8-diaza-spiro[4.5]decan-1-one] | 91 |
